# Where two headings read alike, the source gives them in different places.
# Assays:
# [1] = target: SHP2 enzyme (Homo sapiens (Human), UniProt Q06124); test: Inhibitory activity against SHP2 enzyme (Caliper conversion rate); format: biochemical; conditions: read-out: SHP2 Enzyme Inhibition IC50 Value
# Protocol: (1) Preparing 1×Reaction Buffer according to the BPS Biosciences' Instructions for Use of the SHP2 enzyme. (2) Preparing a compound concentration gradient: Test the test compound at 10 μM under 3× dilution for 10 concentrations, diluting to a 100% dimethyl sulfoxide solution at a 100× final concentration in a 384-well plate, and diluting the compound with Precision 4× for 10 concentrations. Transferring 250 nL of the compound at the 100× final concentration to a target plate OptiPlate-384F using a dispenser Echo 550. […] (3) Preparing the activation peptide solution at a 5× final concentration with the 1×Reaction Buffer, adding 5 μL of the solution to a reaction plate, respectively, and centrifuging at 1000 rpm for 1 min. (4) Preparing an enzyme solution at a 2.5× final concentration with the 1×Reaction Buffer, adding 10 μL of the solution to the reaction plate, respectively, centrifuging at 1000 rpm for 1 min, and incubating at room temperature for 60 min. (5) Preparing a substrate peptide solution at a 2.5× final concentration with the 1×Reaction Buffer, centrifuging at 1000 rpm for 1 min, and incubating at room temperature for 30 min. (6) Adding 30 μL of stop test solution to stop the reaction, centrifuging at 1000 rpm for […], and mixing well by shaking. (7) Reading the conversion rate with a Caliper EZ Reader. (7) Data analysis:
# Wherein: Conversion %/_sample is the reading of a conversion rate of a sample; Conversion %_min: mean of negative control wells, which represents the reading of a conversion rate in absence of enzyme activity wells; Conversion %_max: mean of a ratio of positive control wells, which represents the reading of a conversion rate in absence of compound inhibition wells.
# [2] = system: NCI-H358 tumor cell xenograft; test: Growth inhibition of xenograft in nude mice; format: in vivo; conditions: 10 mg/kg, orally, once daily, for 21 consecutive days
# Description: (§1) Experimental method: 1) Culturing MV 4-11/KYSE520/NCI-H358 cells in a culture medium containing 10% fetal bovine serum. Harvesting tumor cells at an exponential growth phase, and resuspending in PBS to suitable concentrations for subcutaneous tumor inoculation in nude mice. 2) Subcutaneously inoculating 2-8×10^7 tumor cells at the right back of a mouse, and resuspending the cells in PBS and matrigel (1:1); observing tumor growth regularly, and randomizing mice for administration based on tumor size and mouse body weight when tumors grow to a mean volume of ˜120 mm^3-[…]. 3) Defining the day of tumor cell inoculation as Day 0. Prior to the start of dosing, weighing all animals and measuring the tumor volume with a vernier caliper. 3) Administering orally compound of examples (prepared with water for injection containing 1% Tween80 to a desired concentration for use) at a given dose for three consecutive weeks, and giving an equal amount of solvent animals in a solvent control group. Measuring diameters of the xenograft twice a week throughout the experiment, and weighing the mice were at the same time.
# (§2) The calculation formula of tumor volume (TV) is: TV=½×a×b^2, wherein a and b represent length and width, respectively. The relative tumor volume (RTV) is calculated based on the measured results using the formula: RTV=Vt/V0, wherein V0 is the tumor volume measured at the time of dosing in separate cages (i.e., Day 0) and Vt is the tumor volume at each measurement. The anti-tumor activity is evaluated by the following measures: 1) relative tumor proliferation rate T/C (%), which is calculated by the following formula: T/C (%)=(TRTV/CRTV)×100%, wherein TRTV: RTV of ae treatment group; CRTV: RTV of a negative control group; 2) inhibition rate of tumor volume growth GI %, which is calculated by the following formula: GI %=[1−(TVt−TV0)/(CVt−[…])]×100%, wherein TVt is the tumor volume at each measurement in the treatment group; TV0 is the tumor volume obtained at the time of dosing in separate cages in the treatment group; CVt is the tumor volume at each measurement in the control group; CV0 is the tumor volume obtained at the time of dosing in separate cages in the control group (specific data are shown in Table 4).
# [3] = system: MV4-11 leukemia cells; test: Inhibition of proliferation of MV4-11 leukemia cells (CellTiter-Glo, 72 h); format: cell-based; conditions: read-out: IC50 value, MV4-11 cell proliferation
# Protocol: Specific experimental procedures: 1) At Day 0: Inoculating trypsin-digested cells in 96-well plate and suspending the plate in cell culture medium; measure cell density using an automatic cell counter, diluting the cells with the culture medium to appropriate density, adding 100 μl of cell suspension in the 96-well plate, and incubating a cell-free medium as a control well in a cell incubator with […] at 37° C. overnight; 2) Day 1: Treating test compounds of the cells using a drug for a total of 8 concentrations, and diluting at a 3× concentration, wherein 10 μM is a starting test concentration of the test compounds. […] IC50 values are obtained by a four-parameter regression using software attached to the plate reader (the specific results are shown in Table 2).
# [4] = system: MV 4-11 tumor cell xenograft; test: Growth inhibition of xenograft in nude mice; format: in vivo; conditions: 30 mg/kg, orally, once daily, for 21 consecutive days
# Description: as §1, §2
# [5] = system: KYSE520 tumor cell xenograft; test: Growth inhibition of xenograft in nude mice; format: in vivo; conditions: 30 mg/kg, orally, once daily, for 21 consecutive days
# Description: as §1, §2
IC50 [1] [µM],"IC50 ([3]; Homo sapiens, MV4-11, 72 h) [µM]",IC50 ([3]; 72 h) [µM],Compound,T/C [2] [%],T/C [4] [%],T/C [5] [%]
0.0068,0.043,–,"Cc1nc(N2CCC3(CC2)CO[C@@H](C)[C@H]3N)n2ccnc2c1Sc1ccnc(N)c1Cl [Comparative Compound 3, reference compound]",39,–,–
–,–,1.67,"CC1(N)CCN(c2cnc(-c3cccc(Cl)c3Cl)c(N)n2)CC1 [SHP099, reference compound]",–,47,43

# Source: patent publication US12281118B2, “Nitrogen-containing fused heterocyclic SHP2 inhibitor compound, preparation method, and use” (SHANGHAI RINGENE BIOPHARMA CO., LTD., priority 2018, dated 2025)
